Legend:
[1] = molecular target: Serine/threonine-protein kinase PLK3 (Homo sapiens, UniProt Q9H4B4); settings: at 10 µM
[2] = molecular target: Serine/threonine-protein kinase B-raf (Homo sapiens) (UniProt P15056); experiment: (§1) Selectivity interaction (Ambit KINOMEscan and KiNATiv profiling in Jurkat cells) EUB0000090b BRAF; assay type: cell-based; settings: at 1 µM
[3] = tested on: Serine/threonine-protein kinase B-raf (Homo sapiens), P15056 [V600E]; experiment: as §1; assay type: cell-based; settings: at 1 µM
[4] = molecular target: Casein kinase II subunit alpha' (Homo sapiens) (UniProt P19784); experiment: Selectivity interaction (Kinase panel (Z-LYTE Assay)) EUB0001632a CSNK2A2; settings: at 10 µM
[5] = molecular target: T1, Dual serine/threonine and tyrosine protein kinase (Homo sapiens) (UniProt Q6XUX3); experiment: Selectivity interaction (KinomeScan (DiscoverX)) EUB0000595a DSTYK; settings: at 10 µM
T1 sequence (whole entry): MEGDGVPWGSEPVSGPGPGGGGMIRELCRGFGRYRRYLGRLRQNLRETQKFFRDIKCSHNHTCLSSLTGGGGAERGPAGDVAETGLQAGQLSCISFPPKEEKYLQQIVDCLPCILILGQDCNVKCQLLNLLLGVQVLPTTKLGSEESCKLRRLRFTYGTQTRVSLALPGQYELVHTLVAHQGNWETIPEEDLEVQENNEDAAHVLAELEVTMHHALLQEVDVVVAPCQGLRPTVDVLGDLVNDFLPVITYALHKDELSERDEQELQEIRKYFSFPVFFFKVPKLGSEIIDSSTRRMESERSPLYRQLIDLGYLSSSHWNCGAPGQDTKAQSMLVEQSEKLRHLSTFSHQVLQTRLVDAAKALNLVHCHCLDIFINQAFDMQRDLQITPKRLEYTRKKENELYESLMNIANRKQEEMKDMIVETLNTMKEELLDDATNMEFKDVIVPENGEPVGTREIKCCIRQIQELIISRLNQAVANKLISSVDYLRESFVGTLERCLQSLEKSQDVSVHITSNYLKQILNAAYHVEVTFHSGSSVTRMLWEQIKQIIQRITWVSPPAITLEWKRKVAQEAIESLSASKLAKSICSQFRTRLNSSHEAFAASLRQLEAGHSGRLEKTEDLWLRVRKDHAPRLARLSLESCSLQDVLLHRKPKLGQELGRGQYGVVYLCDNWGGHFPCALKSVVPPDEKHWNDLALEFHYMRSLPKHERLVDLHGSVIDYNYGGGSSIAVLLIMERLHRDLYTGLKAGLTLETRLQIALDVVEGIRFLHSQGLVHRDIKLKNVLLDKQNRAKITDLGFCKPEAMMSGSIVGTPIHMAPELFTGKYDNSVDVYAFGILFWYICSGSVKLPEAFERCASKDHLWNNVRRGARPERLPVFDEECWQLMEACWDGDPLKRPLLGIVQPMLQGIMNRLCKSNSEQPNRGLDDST

[6] = tested on: Epidermal growth factor receptor (Homo sapiens), P00533 [UNDEFINED MUTATION]; experiment: Selectivity interaction (KinomeScan (DiscoverX)) EUB0001079a EGFR; settings: at 1 µM
[7] = molecular target: T2, Hormonally up-regulated neu tumor-associated kinase (Homo sapiens) (UniProt P57058); experiment: Selectivity interaction (KinomeScan (DiscoverX)) EUB0001079a HUNK; settings: at 1 µM
T2 sequence (whole entry): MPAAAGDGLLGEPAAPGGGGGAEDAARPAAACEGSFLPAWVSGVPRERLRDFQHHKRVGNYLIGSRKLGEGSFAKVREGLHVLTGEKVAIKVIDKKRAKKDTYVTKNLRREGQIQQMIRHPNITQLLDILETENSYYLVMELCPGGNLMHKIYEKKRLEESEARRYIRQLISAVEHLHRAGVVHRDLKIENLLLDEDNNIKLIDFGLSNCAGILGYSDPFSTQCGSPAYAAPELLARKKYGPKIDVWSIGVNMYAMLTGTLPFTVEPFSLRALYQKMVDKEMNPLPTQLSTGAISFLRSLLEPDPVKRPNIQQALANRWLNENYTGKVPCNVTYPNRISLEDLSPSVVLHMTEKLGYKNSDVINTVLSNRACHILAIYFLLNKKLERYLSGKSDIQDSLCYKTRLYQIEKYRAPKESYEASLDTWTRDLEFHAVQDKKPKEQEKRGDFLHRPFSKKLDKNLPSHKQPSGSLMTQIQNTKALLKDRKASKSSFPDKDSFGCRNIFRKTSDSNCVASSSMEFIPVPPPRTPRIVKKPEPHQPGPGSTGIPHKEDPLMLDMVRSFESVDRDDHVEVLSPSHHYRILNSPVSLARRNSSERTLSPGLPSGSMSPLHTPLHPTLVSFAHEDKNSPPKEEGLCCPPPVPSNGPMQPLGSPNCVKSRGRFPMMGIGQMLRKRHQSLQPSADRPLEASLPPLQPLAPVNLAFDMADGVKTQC

[8] = molecular target: Serine/threonine-protein kinase N2 (Homo sapiens, UniProt Q16513); experiment: Selectivity interaction (KinomeScan (DiscoverX)) EUB0000045b PKN2
[9] = molecular target: T3, Serine/threonine-protein kinase tousled-like 1 (Homo sapiens) (UniProt Q9UKI8); experiment: Selectivity interaction (KinomeScan (DiscoverX)) EUB0000666a TLK1; settings: at 10 µM
T3 sequence (whole entry): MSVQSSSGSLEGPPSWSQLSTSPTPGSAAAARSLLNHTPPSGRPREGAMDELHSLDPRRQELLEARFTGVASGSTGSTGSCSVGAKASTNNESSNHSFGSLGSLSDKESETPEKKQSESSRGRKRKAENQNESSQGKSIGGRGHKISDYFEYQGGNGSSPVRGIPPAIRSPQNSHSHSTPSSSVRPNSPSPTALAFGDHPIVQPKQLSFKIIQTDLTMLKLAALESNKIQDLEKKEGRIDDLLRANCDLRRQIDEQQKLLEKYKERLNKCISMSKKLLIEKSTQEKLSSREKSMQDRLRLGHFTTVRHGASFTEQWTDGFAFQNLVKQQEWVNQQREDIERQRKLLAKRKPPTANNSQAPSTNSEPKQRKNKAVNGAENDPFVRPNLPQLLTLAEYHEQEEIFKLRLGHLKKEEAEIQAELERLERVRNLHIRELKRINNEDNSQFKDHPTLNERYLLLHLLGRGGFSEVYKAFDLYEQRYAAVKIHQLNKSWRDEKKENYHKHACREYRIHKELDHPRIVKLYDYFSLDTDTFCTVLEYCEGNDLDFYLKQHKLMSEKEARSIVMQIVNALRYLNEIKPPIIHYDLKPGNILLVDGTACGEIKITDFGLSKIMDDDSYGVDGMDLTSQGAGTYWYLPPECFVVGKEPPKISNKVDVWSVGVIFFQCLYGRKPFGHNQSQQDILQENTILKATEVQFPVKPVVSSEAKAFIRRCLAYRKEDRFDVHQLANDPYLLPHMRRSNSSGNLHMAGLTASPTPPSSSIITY

Serine/threonine-protein kinase N2, sequence (Q16513 whole entry, looked up): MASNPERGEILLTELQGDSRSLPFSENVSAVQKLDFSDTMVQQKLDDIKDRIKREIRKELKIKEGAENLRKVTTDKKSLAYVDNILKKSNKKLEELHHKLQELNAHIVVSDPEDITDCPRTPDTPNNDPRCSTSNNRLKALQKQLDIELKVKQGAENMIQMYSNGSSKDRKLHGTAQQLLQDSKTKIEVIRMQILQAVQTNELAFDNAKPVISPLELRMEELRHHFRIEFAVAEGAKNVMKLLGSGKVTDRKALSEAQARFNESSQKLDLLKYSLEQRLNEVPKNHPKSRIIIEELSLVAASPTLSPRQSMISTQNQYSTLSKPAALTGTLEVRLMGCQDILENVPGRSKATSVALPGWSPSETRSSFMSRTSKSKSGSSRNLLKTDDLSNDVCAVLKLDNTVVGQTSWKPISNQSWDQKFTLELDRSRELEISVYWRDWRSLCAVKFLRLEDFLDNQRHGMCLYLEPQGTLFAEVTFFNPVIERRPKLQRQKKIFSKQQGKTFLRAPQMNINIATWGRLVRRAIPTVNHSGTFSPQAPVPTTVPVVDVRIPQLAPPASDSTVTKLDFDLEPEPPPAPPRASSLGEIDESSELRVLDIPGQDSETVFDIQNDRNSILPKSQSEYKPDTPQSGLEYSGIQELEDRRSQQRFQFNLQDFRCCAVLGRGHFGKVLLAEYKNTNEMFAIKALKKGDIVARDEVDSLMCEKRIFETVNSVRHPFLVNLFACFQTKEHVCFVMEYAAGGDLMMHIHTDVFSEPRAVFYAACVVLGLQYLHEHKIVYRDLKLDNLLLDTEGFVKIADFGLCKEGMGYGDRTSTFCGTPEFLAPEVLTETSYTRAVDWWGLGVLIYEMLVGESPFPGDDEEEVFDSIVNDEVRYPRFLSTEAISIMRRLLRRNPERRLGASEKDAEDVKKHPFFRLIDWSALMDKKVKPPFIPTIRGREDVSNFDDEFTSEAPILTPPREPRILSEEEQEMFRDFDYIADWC
Serine/threonine-protein kinase PLK3, sequence (Q9H4B4 whole entry, looked up): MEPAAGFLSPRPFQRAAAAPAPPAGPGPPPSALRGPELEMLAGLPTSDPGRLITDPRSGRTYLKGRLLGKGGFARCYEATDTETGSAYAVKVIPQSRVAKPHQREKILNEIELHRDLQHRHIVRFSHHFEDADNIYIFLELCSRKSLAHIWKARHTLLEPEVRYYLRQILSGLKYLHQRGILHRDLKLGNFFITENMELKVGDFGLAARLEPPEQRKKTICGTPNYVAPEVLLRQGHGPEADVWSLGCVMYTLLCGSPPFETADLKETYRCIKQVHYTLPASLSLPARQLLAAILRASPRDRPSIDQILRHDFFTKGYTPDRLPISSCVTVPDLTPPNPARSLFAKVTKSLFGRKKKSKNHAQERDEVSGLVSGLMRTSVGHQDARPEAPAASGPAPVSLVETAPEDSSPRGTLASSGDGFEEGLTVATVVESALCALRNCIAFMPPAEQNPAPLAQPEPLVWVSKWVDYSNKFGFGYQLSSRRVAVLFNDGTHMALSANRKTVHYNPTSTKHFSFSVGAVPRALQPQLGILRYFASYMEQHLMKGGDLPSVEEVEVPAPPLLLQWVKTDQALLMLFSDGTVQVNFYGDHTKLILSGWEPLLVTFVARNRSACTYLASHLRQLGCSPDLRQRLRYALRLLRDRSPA
Epidermal growth factor receptor (Homo sapiens), P00533 [UNDEFINED MUTATION], sequence (P00533 whole entry, looked up, change not shown): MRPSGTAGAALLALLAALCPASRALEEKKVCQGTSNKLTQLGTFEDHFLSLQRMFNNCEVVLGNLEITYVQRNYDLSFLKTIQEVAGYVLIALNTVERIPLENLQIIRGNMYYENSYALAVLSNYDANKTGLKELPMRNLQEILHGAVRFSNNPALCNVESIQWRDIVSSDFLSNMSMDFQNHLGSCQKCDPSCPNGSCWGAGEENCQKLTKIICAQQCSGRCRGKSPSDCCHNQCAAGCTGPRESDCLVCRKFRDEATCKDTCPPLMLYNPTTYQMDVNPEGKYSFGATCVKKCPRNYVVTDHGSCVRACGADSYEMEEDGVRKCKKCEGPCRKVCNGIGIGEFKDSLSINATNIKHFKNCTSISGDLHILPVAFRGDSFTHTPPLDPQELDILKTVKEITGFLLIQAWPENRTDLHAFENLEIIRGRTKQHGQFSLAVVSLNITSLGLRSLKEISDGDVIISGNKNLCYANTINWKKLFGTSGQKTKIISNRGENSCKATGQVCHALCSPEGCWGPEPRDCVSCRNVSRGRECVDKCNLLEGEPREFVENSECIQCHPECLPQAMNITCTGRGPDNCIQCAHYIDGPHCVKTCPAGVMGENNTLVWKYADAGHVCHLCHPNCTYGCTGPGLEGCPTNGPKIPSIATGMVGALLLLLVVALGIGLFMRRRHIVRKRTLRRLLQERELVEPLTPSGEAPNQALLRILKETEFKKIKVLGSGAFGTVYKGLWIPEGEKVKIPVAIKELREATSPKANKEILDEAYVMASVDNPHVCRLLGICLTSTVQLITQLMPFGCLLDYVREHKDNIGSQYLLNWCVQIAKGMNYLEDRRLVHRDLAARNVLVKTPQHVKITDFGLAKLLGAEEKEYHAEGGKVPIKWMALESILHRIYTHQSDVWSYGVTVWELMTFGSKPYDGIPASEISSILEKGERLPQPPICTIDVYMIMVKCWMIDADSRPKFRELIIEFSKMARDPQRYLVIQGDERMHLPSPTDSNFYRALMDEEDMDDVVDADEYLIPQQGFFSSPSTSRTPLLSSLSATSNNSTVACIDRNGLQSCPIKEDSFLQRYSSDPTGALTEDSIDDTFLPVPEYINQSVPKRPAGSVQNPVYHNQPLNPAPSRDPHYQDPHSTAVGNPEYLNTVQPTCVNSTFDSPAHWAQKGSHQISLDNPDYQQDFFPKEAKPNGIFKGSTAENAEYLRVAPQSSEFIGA
Serine/threonine-protein kinase B-raf (Homo sapiens), P15056 [V600E], sequence (P15056 whole entry V600E): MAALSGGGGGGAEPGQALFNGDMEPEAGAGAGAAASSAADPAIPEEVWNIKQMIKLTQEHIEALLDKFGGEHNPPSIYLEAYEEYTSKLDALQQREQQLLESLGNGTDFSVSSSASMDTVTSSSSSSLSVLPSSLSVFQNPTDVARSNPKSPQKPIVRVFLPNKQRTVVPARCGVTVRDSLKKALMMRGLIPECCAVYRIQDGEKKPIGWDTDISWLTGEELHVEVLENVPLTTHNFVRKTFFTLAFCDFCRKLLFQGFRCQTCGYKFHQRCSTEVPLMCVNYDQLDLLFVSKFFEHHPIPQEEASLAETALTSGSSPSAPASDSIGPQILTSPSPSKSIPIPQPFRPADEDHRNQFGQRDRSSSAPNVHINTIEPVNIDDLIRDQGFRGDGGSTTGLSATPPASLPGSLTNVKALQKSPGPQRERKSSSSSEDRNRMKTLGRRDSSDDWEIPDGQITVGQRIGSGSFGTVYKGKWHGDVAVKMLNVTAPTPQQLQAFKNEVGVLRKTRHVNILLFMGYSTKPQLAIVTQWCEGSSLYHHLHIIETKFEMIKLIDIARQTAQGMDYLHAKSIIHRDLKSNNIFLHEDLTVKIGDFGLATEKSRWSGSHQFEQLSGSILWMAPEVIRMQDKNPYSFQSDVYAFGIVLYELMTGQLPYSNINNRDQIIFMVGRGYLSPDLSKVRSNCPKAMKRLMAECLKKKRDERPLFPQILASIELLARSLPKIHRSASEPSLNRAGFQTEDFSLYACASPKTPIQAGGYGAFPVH
Serine/threonine-protein kinase B-raf (Homo sapiens), sequence (P15056 whole entry): as the sequence (P15056 whole entry V600E) above, with E600V counted along it
Casein kinase II subunit alpha' (Homo sapiens), sequence (P19784 whole entry, looked up): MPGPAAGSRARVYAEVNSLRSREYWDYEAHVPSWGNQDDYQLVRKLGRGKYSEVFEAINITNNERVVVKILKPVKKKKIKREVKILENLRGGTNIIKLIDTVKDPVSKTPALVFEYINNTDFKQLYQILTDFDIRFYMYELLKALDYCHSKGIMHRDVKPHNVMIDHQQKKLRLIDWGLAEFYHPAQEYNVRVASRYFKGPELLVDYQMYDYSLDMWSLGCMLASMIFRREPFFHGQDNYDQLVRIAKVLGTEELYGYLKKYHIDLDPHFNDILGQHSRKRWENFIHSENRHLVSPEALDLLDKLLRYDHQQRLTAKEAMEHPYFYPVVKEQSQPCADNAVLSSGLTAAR

`Cc1cc([C@@H](C)Nc2ccccc2C(=O)O)c2nc(N3CCOCC3)cc(=O)n2c1` [AZD-6482] showed a % of control [1] of 89%.

`CN(C)C/C=C/C(=O)Nc1ccc(C(=O)N2CCCC(Nc3ncc(Cl)c(-c4c[nH]c5ccccc45)n3)C2)cc1` (stereo not given) showed a % of control [2] of 98% and a % of control [3] of 100%.

`Cn1cc(-n2cnc3c(NCc4nc5cc(Cl)c(Cl)cc5[nH]4)nc(N4CCOCC4)nc32)cn1` showed a % of control [4] of 1.8%.

For `COCC(=O)NC/C=C/c1ccc2ncnc(Nc3ccc(Oc4ccc(C)nc4)c(C)c3)c2c1` [CP-724714], the % of control [5] was 75%.

With `Nc1cnc(N2CCc3cc(S(=O)(=O)Nc4c(F)cc(Cl)cc4F)cc(N4CCCC4=O)c32)nc1` [TP-020n] the % of control [6] was 100% and the % of control [7] was 99%.

`C=CC(=O)Nc1cc(-n2c(=O)ccc3cnc4ccc(-c5ccc(NS(C)(=O)=O)cc5)cc4c32)ccc1C` was tested, and the % of control ([8]; at 1 µM) was 100% and the % of control ([8]; at 10 µM) was 100%.

With `O=C(NOC[C@H](O)CO)c1ccc(F)c(F)c1Nc1ccc(I)cc1F` the % of control [9] was 89%.
